From ChEMBL document CHEMBL1201862, “PubChem BioAssay data set” (2004)
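Five concentrations, 48 hours, 96-well plates. GI50 = concentration required for 50% inhibition of growth.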 The source made the active and inactive calls. No stated cut-off is given here; in the data, active = GI50 up to about 1.1 µM and inactive = higher.

Legend:
Experiment in all cases: DTP human tumour cell line panel, 48 h
[1] = tested on: CCRF-CEM
[2] = tested on: DU-145
[3] = tested on: HOP-62
[4] = tested on: MDA-MB-231
[5] = tested on: MDA-N
[6] = tested on: NCI-H226
[7] = tested on: OVCAR-5
[8] = tested on: SF-539
[9] = tested on: SK-MEL-5
[10] = tested on: SR
[11] = tested on: SW-620
[12] = tested on: TK-10
[13] = tested on: U-251
[14] = tested on: UACC-62
[15] = tested on: CAKI-1
[16] = tested on: HT-29
[17] = tested on: KM12
[18] = tested on: OVCAR-4
[19] = tested on: RXF 393
[20] = tested on: SF-295

Measured: GI50

CCc1ccc2oc(-c3cc(O)c(-c4nc5cc(CC)ccc5o4)cc3O)nc2c1
inactive: [1] > 100 µM | [2] > 100 µM | [3] > 100 µM | [4] > 100 µM | [5] > 100 µM | [6] > 100 µM | [7] > 100 µM | [8] > 100 µM | [9] > 100 µM | [10] > 100 µM | [11] > 100 µM | [12] > 100 µM | [13] > 100 µM | [14] > 100 µM

COc1ccc(/C=C2\CC3C4CC=C5C[C@@H](N6CCCC6)CC[C@]5(C)C4CC[C@]3(C)[C@H]2O)cc1OC (stereo partly drawn)
inactive: [15] 8.65 µM | [1] 8.17 µM | [2] 11.2 µM | [3] 5.48 µM | [16] 4.13 µM | [17] 6.56 µM | [4] 7.85 µM | [5] 7.55 µM | [6] 10.5 µM | [18] 7.67 µM | [7] 10.2 µM | [19] 8.77 µM | [20] 3.13 µM | [8] 7.06 µM | [9] 7.26 µM | [11] 15.8 µM | [12] 10.8 µM | [13] 8.45 µM | [14] 8.97 µM

N#Cc1nnn(C2CCCCC2)c1O
inactive: [15] > 100 µM | [1] > 100 µM | [2] > 100 µM | [3] > 100 µM | [16] > 100 µM | [17] > 100 µM | [4] > 100 µM | [5] > 100 µM | [6] > 100 µM | [18] > 100 µM | [7] > 100 µM | [19] > 100 µM | [20] > 100 µM | [8] > 100 µM | [9] > 100 µM | [11] > 100 µM | [12] > 100 µM | [13] > 100 µM | [14] > 100 µM

CS(=O)(=O)c1nc(-c2cc3c(c(S(C)(=O)=O)n2)CCC3)cc2c1CCCC2
inactive: [15] 17 µM | [1] > 100 µM | [2] > 100 µM | [3] 24.1 µM | [16] > 100 µM | [17] > 100 µM | [4] 38.9 µM | [5] > 100 µM | [6] > 100 µM | [18] > 100 µM | [7] > 100 µM | [19] 15.6 µM | [20] 29.7 µM | [8] 49.3 µM | [9] > 100 µM | [11] > 100 µM | [12] 64.9 µM | [13] 27.1 µM | [14] 14.4 µM

CN1C(=O)c2ccccc2NC(=O)C12O[C@@H]2c1cccc(O)c1 (stereo partly drawn)
inactive: [15] > 100 µM | [1] > 100 µM | [2] > 100 µM | [3] > 100 µM | [16] > 100 µM | [17] > 100 µM | [4] > 100 µM | [5] > 100 µM | [18] > 100 µM | [7] 95.9 µM | [20] > 100 µM | [8] > 100 µM | [9] > 100 µM | [10] > 100 µM | [11] > 100 µM | [12] > 100 µM | [13] > 100 µM | [14] > 100 µM

CCOC(=O)/C=C(/C(=O)OCC)n1cc(C)c(=O)n(Cc2cnnn2CCCCOC(C)=O)c1=O
inactive: [15] 5.79 µM | [1] 1.13 µM | [2] > 100 µM | [3] > 100 µM | [16] 19.2 µM | [17] 44.2 µM | [4] 64.6 µM | [5] 55.3 µM | [6] > 100 µM | [18] 48.5 µM | [7] 19.6 µM | [19] 33.3 µM | [20] > 100 µM | [8] 15.1 µM | [9] 30 µM | [11] 5.55 µM | [12] 12.6 µM | [13] 32.4 µM | [14] 19 µM
